Results reported in patent publication US6569860B2, “Alkoxycarbonylamino heteroaryl carboxylic acid derivatives as IP antagonists” (Roćhe Palo Alto LLC, priority 2001, dated 2003).

melting point [°C] | SMILES
184 to 185 | O=C(Nc1cnc(-c2ccccc2)nc1C(=O)O)OCc1cc2cc(-c3ccccc3)ccc2o1 [Example 1, 2-Phenyl-5-(5-phenyl-benzofuran-2-ylmethoxycarbonylamino)-pyrimidine-4-carboxylic Acid]
220.6 to 220.8 | O=C(Nc1nn(-c2ccccc2)cc1C(=O)O)OCc1cc2cc(-c3ccccc3)ccc2o1 [Example 2, 1-Phenyl-3-(5-phenyl-benzofuran-2-ylmethoxycarbonylamino)-1H-pyrazole-4-carboxylic Acid]
235.7 to 238.9 | O=C(Nc1cnccc1C(=O)O)OCc1cc2cc(-c3ccccc3)ccc2o1 [Example 3, 3-(5-Phenyl-benzofuran-2-ylmethoxycarbonylamino)-isonicotinic Acid]
